Results as given in paper PMC5740381 (Antimicrobial Agents and Chemotherapy, 2017).
Read-outs that look alike come from different tables or passages of the source.

Columns and labels:
[1] = tested on: HCV replicons with genotype 2b patient proteases; test: Transient replicon assay with proteases from HCV-infected patients; format: cell-based; settings: Hepatitis C virus, read-out: EC50 Range
Text: Each of the NS3 gene sequences from genotypes 1, 2, and 4, with the exception of two genotype 2b sequences, was derived from serum or plasma from an HCV-infected patient by bulk PCR amplification, producing a population of sequences representing the viral quasispecies. Two genotype 2b sequences were synthesized based on the consensus sequences of the respective samples. One genotype 3a sequence was synthesized based on a consensus sequence from the sequences available in the Los Alamos HCV sequence database, and another genotype 3a sequence was a clonal sequence derived from a patient sample. The genotype 5a sequence (strain SA13) was synthesized based on the published sequence of the HCV isolate ([48]).
For the analysis of NS3 sequences from patients, we defined a polymorphism to be an amino acid difference in the sequence of a baseline sample relative to the sequence of the appropriate HCV subtype reference sequence: genotype 1a H77 (GenBank accession number NC_004102), genotype 1b Con1 (GenBank accession number AJ238799), genotype 2a JFH-1 (GenBank accession number AB047639), genotype 2b HC-J8 (GenBank accession number D10988), genotype 3a S52 (GenBank accession number GU814263), genotype 4a ED43 (GenBank accession number GU814265), genotype 4d QC382 (GenBank accession number FJ462437), and genotype 5a SA13 (GenBank accession number AF064490). […]

[2] = tested on: HCV genotype 5a replicon cells; test: Drug-resistant colony selection in replicon cells; format: cell-based, Hepatitis C virus
Text: (§1) . After approximately 3 weeks of treatment, the surviving replicon colonies in one plate for each selection condition were stained with crystal violet and counted, whereas approximately 20 to 30 colonies in a replicate plate or most of the colonies, if less than 20 colonies survived the selection, were picked and further expanded for genotyping. The expanded colonies were lysed in CellsDirect lysis buffer (Invitrogen, MA), and the NS3-coding region from each colony was amplified by reverse transcription-PCR and sequenced. For genotype 1a, 1b, 2a, and 5a colonies, the full-length NS3 sequence was determined, whereas for colonies of the chimeric replicon containing the N-terminal region of NS3 from genotype 2b, 3a, 4a, or 6a, the sequence encoding the NS3 N-terminal region was determined. We defined a substitution in a replicon to be an amino acid difference in a sequence from a posttreatment sample relative to the sequence of the corresponding untreated sample. For resistance selection studies, NS3 substitutions detected at the following amino acid positions associated with resistance to the HCV PI class in >2 colonies in each replicon selection are reported: 36, 43, 54, 55, 56, 80, 122, 155, 156, and 168. In addition, substitutions detected at other amino acid positions in the NS3 protease domain in >2 colonies in each replicon selection are also reported.

[3] = tested on: HCV genotype 2a replicon cells; test: Drug-resistant colony selection in replicon cells; format: cell-based, Hepatitis C virus
Text: as §1

[4] = tested on: HCV genotype 2b replicon cells; test: Drug-resistant colony selection in replicon cells; format: cell-based, Hepatitis C virus
Text: as §1

[5] = tested on: HCV genotype 3a replicon cells; test: Drug-resistant colony selection in replicon cells; format: cell-based, Hepatitis C virus
Text: as §1

[6] = tested on: HCV genotype 4a replicon cells; test: Drug-resistant colony selection in replicon cells; format: cell-based, Hepatitis C virus
Text: as §1

[7] = tested on: HCV genotype 6a replicon cells; test: Drug-resistant colony selection in replicon cells; format: cell-based, Hepatitis C virus
Text: as §1

[8] = tested on: HCV genotype 1b replicon cells; test: Drug-resistant colony selection in replicon cells; format: cell-based, Hepatitis C virus
Text: as §1
(§2) […]. The drug-resistant colonies were fixed and stained with crystal violet, and the number of colonies was determined.

[9] = tested on: HCV genotype 1a replicon cells; test: Drug-resistant colony selection in replicon cells; format: cell-based, Hepatitis C virus
Text: as §1, §2

[10] = tested on: HCV subgenomic stable replicon GT6e; test: microbe, parasite or virus in culture; format: cell-based, Hepatitis C virus; settings: read-out: Mean EC50 ± SD
Text: Five of these nine cell lines have been described previously, including those transfected with genotypes 1a H77, 1b Con1, 3a, 4a, and 6a ([28]). […] The genotype 2b and 6e NS3 sequences were each synthetically constructed based on a consensus sequence derived from the alignment of 15 genotype 2b and 4 genotype 6e sequences, respectively. All replicon constructs were bicistronic subgenomic replicons similar to those described by Bartenschlager and coworkers, and the replicon cell lines were generated by introducing these constructs into cells of an Huh-7 human hepatoma-derived cell line ([50]). The inhibitory effect of the PIs on HCV replication in replicon cells was determined in Dulbecco's modified Eagle medium containing 5% fetal bovine serum with or without 40% human plasma (Bioreclamation, Westbury, NY). The EC50s were determined using nonlinear regression curve fitting as described previously ([33]).

[11] = tested on: HCV genotype 1 to 6 replicons containing NS3 substitutions; test: Transient replicon assay with engineered substitutions, summary over genotypes; format: cell-based, Hepatitis C virus
Experimental: Mutagenesis was performed using a Change-IT multiple-mutation site-directed mutagenesis kit (USB, Cleveland, OH) or by cloning a synthesized DNA fragment encoding the amino acid substitution(s). The genotype 1a and 1b replicon shuttle vectors used for the introduction of the substitutions of interest in the NS3, NS5A, or NS5B gene for transient-transfection assays have been described previously ([28], [33]). The replicon shuttle vectors used for the introduction of substitutions in NS3 genes from other genotypes were similar to the stable replicon cell line constructs described above, except for the absence of the neo gene. After mutagenesis, the plasmids were linearized and RNA was transcribed and then used to transfect Huh-7 cells. Inhibition of HCV replication by the HCV inhibitors was measured by luciferase assay, as described above. Replication efficiency was calculated as a percentage of wild-type replication, as described previously ([28]).

CC(C)(C)[C@@H]1NC(=O)O[C@@H]2CCC[C@H]2OC/C=C/C(F)(F)c2nc3ccccc3nc2O[C@@H]2C[C@@H](C(=O)N[C@]3(C(=O)NS(=O)(=O)C4(C)CC4)C[C@H]3C(F)F)N(C2)C1=O [Glecaprevir, (3aR,7S,10S,12R,21E,24aR)-7-tert-butyl-N-[(1R,2R)-2-(difluoromethyl)-1-{[(1-methylcyclopropyl)sulfonyl]carbamoyl}cyclopropyl]-20,20-difluoro-5,8-dioxo-2,3,3a,5,6,7,8,11,12,20,23,24a-dodecahydro-1H,10H-9,12-methanocyclopenta[18,19][1,10,17,3,6]trioxadiazacyclononadecino[11,12-b]quinoxaline-10-carboxamide] was tested, and the EC50 [1] was 1.4 to 3.2 nM, the Colony survival ([2]; 10× EC50) was 0.001% and the Colony survival ([2]; 100× EC50) was 0%. For the same compound, the Colony survival ([3]; 10× EC50) was greater than 0.05%, the Colony survival ([3]; 100× EC50) was greater than 0.05% and the Colony survival ([4]; 10× EC50) was greater than 0.05%. The Colony survival ([4]; 100× EC50) was greater than 0.05%, the Colony survival ([5]; 10× EC50, 1 × 10^4 input cells) was 0.1% and the Colony survival ([5]; 100× EC50) was 0.0003%. The Colony survival ([6]; 10× EC50) was 0.0015%, the Colony survival ([6]; 100× EC50) was 0.0018% and the Colony survival ([7]; 10× EC50) was 0.018%. The Colony survival ([7]; 100× EC50) was 0%, the Colony survival ([8]; 10× EC50, about 3 weeks) was 0.047% and the Colony survival ([8]; 100× EC50) was 0.03%. It also gave a Colony survival ([9]; 10× EC50, about 3 weeks) of 0.043% and a Colony survival ([9]; 100× EC50) of 0.0029%.

In the case of C=C[C@@H]1C[C@]1(NC(=O)[C@@H]1C[C@@H]2CN1C(=O)[C@H](C(C)(C)C)NC(=O)O[C@@H]1C[C@H]1CCCCCc1nc3ccc(OC)cc3nc1O2)C(=O)NS(=O)(=O)C1CC1 [Grazoprevir], the EC50 ([10]; 0% human plasma) is reported as 0.25 ± 0.01 nM.

Cc1cnc(C(=O)N[C@H]2CCCCC/C=C\[C@@H]3C[C@@]3(C(=O)NS(=O)(=O)C3CC3)NC(=O)[C@@H]3C[C@@H](Oc4nc5ccccc5c5ccccc45)CN3C2=O)cn1 [Paritaprevir] was tested, and the EC50 ([10]; Hepatitis C virus, Huh-7, 0% human plasma) was 0.44 ± 0.17 nM, the “Fold decrease in susceptibility” value ([11]; R155 substitutions in genotypes 1, 3 and 4) was 5.2- to 59 fold and the “Fold reduction in antiviral activity, range” value ([11]; replicons with A156 substitutions in genotypes 1 to 4) was 1.7- to 155 fold.
